In one data set the test system is SCD-1 mRNA. In words: Inhibition of SCD-1 mRNA induction in 3T3-L1 cells (RT-PCR). The data set is classed as cell-based, murine. The note with it: for inhibition of SCD-1 mRNA induction: result in words, MDI-treated 3T3-L1 cells. From the text: Chomczynski, P. et al., Anal. […] NO: 4)).
In data set [1] the target is T1, full-length recombinant rat vitamin D receptor (Rattus norvegicus, UniProt P13053).
T1 construct: Full-length recombinant rat receptor was expressed in E. coli; histidine tag (C); made in house; host or cells: E. coli BL21(DE3) Codon Plus RIL
T1 sequence (P13053 1-423): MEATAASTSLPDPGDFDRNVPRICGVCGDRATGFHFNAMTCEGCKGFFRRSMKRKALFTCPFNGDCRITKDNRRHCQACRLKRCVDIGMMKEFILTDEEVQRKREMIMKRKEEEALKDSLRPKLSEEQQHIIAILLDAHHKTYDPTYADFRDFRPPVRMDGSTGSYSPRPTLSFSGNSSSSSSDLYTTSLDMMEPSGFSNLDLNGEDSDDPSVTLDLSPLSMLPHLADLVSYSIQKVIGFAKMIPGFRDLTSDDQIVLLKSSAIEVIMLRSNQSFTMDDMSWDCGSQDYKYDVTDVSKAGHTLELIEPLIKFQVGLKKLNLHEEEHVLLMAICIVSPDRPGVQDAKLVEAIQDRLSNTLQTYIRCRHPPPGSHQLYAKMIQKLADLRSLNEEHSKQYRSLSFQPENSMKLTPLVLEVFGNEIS
Description: Vitamin D receptor binding (competition with 3H-1,25(OH)2D3). The note with it: for binding to the vitamin D receptor, compared to 1α,25(OH)2D3: result in words, competition for tritiated hormone binding. On the procedure: Full-length recombinant rat receptor was expressed in E. coli BL21(DE3) Codon Plus RIL cells and purified to homogeneity using two different column chromatography systems. The first system was a nickel affinity resin that utilizes the C-terminal histidine tag on this protein. The protein that was eluted from this resin was further purified using ion exchange chromatography (S-Sepharose Fast Flow). Aliquots of the purified protein were quick frozen in liquid nitrogen and stored at −80° C. until use. For use in binding assays, the protein was diluted in TEDK50 (50 mM Tris, 1.5 mM EDTA, pH 7.4, 5 mM DTT, 150 mM KCl) with 0.1% Chaps detergent. The receptor protein and ligand concentration was optimized such that no more than 20% of the added radiolabeled ligand was bound to the receptor.
Unlabeled ligands were dissolved in ethanol and the concentrations determined using UV spectrophotometry (1,25(OH)2D3: molar extinction coefficient=18,200 and λmax=265 nm; Analogs: molar extinction coefficient=42,000 and λmax=252 nm). Radiolabeled ligand (^3H-1,25(OH)2D3, ˜159 Ci/mmole) was added in ethanol at a final concentration of 1 nM.
Radiolabeled and unlabeled ligands were added to 100 mcl of the diluted protein at a final ethanol concentration of ≦10%, mixed and incubated overnight on ice to reach binding equilibrium. The following day, 100 mcl of hydroxylapatite slurry (50%) was added to each tube and mixed at 10-minute intervals for 30 minutes. The hydroxylapaptite was collected by centrifugation and then washed three times with Tris-EDTA buffer (50 mM Tris, 1.5 mM EDTA, pH 7.4) containing 0.5% Titron X-100. After the final wash, the pellets were transferred to scintillation vials containing 4 ml of Biosafe II scintillation cocktail, mixed and placed in a scintillation counter. Total binding was determined from the tubes containing only radiolabeled ligand.

A further data set deals with 3T3-L1 cells. Description: Inhibition of 3T3-L1 differentiation into mature adipocytes (Oil-Red-O staining). The data set is classed as cell-based, murine. As to conditions: for inhibition of differentiation of 3T3-L1 cells into mature adipocytes (Oil-Red-O staining): result in words, MDI-treated cells, staining at day 10. On the procedure:
Various 19-nor vitamin D analogs were or are tested and found to inhibit the differentiation of preadipocytes into mature adipocytes, to reduce body fat, to inhibit an increase in PPARγ, C/EBPα, and/or SCD-1 gene transcription and to be useful in treating and preventing obesity both in vivo and in vitro. The undifferentiated preadipocyte 3T3-L1 subline, a derivative of the original mouse fibroblast cell line, is one of the most accepted models for investigating the adipogenesis process and was used for the analysis. Two days after reaching confluence, 3T3-L1 cells can be induced to differentiate into adipocytes (see Mackall, J. C. et al. J. Biol. Chem., 251(20), 6462-6464 (1976)) with the addition of a cAMP phosphodiesterase inhibitor, dexamethasone (a glucocortoid), and insulin. […] The induction of PPARγ and C/EBPα is required for adipocyte differentiation. […] SCD-1 is an enzyme found in adipocytes that converts saturated fatty acids (C16 and C18) to their monounsaturated forms (C16:1 and C18:1). The deposition of triglyceride can also be detected as early as 3 days, and by the 7th to 14th days post-confluence, greater than 80% of the cells in the monolayer stain positively with Oil-red-O.

A short description of data set [2]: Intestinal calcium transport (everted gut sac). It is filed as in vivo. As to conditions: result in words; vitamin D deficient rat model, compared to 1α,25(OH)2D3. On the procedure:
(§1) Male, weanling Sprague-Dawley rats were placed on Diet 11 (0.47% Ca) diet+AEK for one week followed by Diet 11 (0.02% Ca)+AEK for 3 weeks. The rats were then switched to a diet containing 0.47% Ca for one week followed by two weeks on a diet containing 0.02% Ca. Dose administration began during the last week on 0.02% calcium diet. Four consecutive ip doses were given approximately 24 hours apart. Twenty-four hours after the last dose, blood was collected from the severed neck and the concentration of serum calcium determined as a measure of bone calcium mobilization. The first 10 cm of the intestine was also collected for intestinal calcium transport analysis using the everted gut sac method.

The nature of data set [3]: Bone calcium mobilization (serum calcium on low calcium diet). The note with it: result in words; vitamin D deficient rat model, compared to 1α,25(OH)2D3. It is filed as in vivo, rat. As for the experimental part:
as §1

Data set [4] concerns Human promyelocytic leukemia (HL60) cells. Description: HL-60 differentiation (nitro blue tetrazolium reduction). As to conditions: for differentiation of HL-60 cells, compared to 1α,25(OH)2D3: result in words. It is filed as cell-based. As for the experimental part:
The study drugs were dissolved in ethanol and the concentrations determined using UV spectrophotometry. Serial dilutions were prepared so that a range of drug concentrations could be tested without changing the final concentration of ethanol (≦0.2%) present in the cell cultures.
Human promyelocytic leukemia (HL60) cells were grown in RPMI-1640 medium containing 10% fetal bovine serum. The cells were incubated at 37° C. in the presence of 5% CO2.
HL60 cells were plated at 1.2×10^5 cells/ml. Eighteen hours after plating, cells in duplicate were treated with drug. Four days later, the cells were harvested and a nitro blue tetrazolium reduction assay was performed (Collins et al., 1979; J. Exp. Med. 149:969-974). The percentage of differentiated cells was determined by counting a total of 200 cells and recording the number that contained intracellular black-blue formazan deposits. Verification of differentiation to monocytic cells was determined by measuring phagocytic activity (data not shown).

Data set [5] has as its system 24-hydroxylase (24Ohase) gene promoter in ROS 17/2.8 (bone) cells. In words: In vitro transcription assay (luciferase reporter). The data set is classed as cell-based. The note with it: result in words. As for the experimental part: Transcription activity was measured in ROS 17/2.8 (bone) cells that were stably transfected with a 24-hydroxylase (24Ohase) gene promoter upstream of a luciferase reporter gene (Arbour et al., 1998). Cells were given a range of doses. Sixteen hours after dosing the cells were harvested and luciferase activities were measured using a luminometer. RLU=relative luciferase units.
Background: Reporter assays use an easily measured gene product as a stand-in for the process of interest.

“Also recorded” adds a separate entry of the source.

For the compound `CC(CCCC(C)(C)O)C1CCC2C(=CC=C3CC(O)C(=CCCO)C(O)C3)CCCC21C` (stereo not shown) [1AGR], the “inhibition of SCD-1 mRNA induction” value in the data set on SCD-1 mRNA was “nearly equipotent; also recorded: active”. Moreover, the figures for the “binding to the vitamin D receptor, compared to 1α,25(OH)2D3” value (from here on “binding … compared to 1α,25(OH)2D3”) in data set [1] and in data set [1] (listed as AGR) were “very active” and “less than five times less potent”, respectively. Moreover, the “inhibition of differentiation of 3T3-L1 cells into mature adipocytes (Oil-Red-O staining)” value in the data set on 3T3-L1 cells is given as “nearly equipotent; also recorded: so much greater; also recorded: active”. Also, in data set [2], the “intestinal calcium transport activity” value is recorded as “relatively high intestinal calcium transport activity; also recorded: active”. Besides, the “bone calcium mobilization activity” value in data set [3] is “significant ability to mobilize calcium from bone; also recorded: active”. Further, the “cells induced to differentiate in the NBT assay” value in data set [4] (concentration 1×10^−7 M) is “same degree of differentiation”. Moreover, in data set [4], the “differentiation of HL-60 cells, compared to 1α,25(OH)2D3” value (shortened to “differentiation of HL-60 cells”) was “as potent as”. In addition, the “transcriptional activity in bone cells, compared to 1α,25(OH)2D3” value in data set [5] is reported as “significant transcriptional activity”.
Turning to `C=C1[C@H](O)CC(=C/C=C2\CCC[C@]3(C)[C@@H](CC)CC[C@@H]23)C[C@H]1O` [2-Mpregna], the “inhibition of SCD-1 mRNA induction” value in the data set on SCD-1 mRNA is given as “nearly as potent as the native hormone”; in the data set with SCD-1 mRNA (listed as 2Mpregna), “still active”. Further, the “inhibition of SCD1 mRNA induction” value in the data set with SCD-1 mRNA (tested at 1×10^−8.5 M) is reported as “active”. For the same compound, in data set [1], the “binding … compared to 1α,25(OH)2D3” value is “as or nearly effective as calcitriol”. The “inhibition of differentiation of 3T3-L1 cells into mature adipocytes (Oil-Red-O staining)” value is given as “nearly as potent as the native hormone” with 3T3-L1 cells and “still active” in the data set on 3T3-L1 cells (listed as 2Mpregna). In addition, in the data set on 3T3-L1 cells (tested at 1×10^−8.5 M), the “inhibition of differentiation of MDI-treated 3T3-L1 cells (oil-red-O staining)” value is “active”. Also, in data set [2], the “intestinal calcium transport activity” value is “little, if any, activity”. For the same compound, the “bone calcium mobilization activity” value in data set [3] is recorded as “little, if any, activity”.
With `CCCC[C@H](C)[C@H]1CC[C@H]2/C(=C/C=C3C[C@@H](O)C(C)[C@H](O)C3)CCC[C@]12C` (stereo partly drawn) [2α-methyl-19,26,27-trinor, 2α-methyl-19,26,27-trinor-(20S)-1α-hydroxyvitamin D3], the “binding … compared to 1α,25(OH)2D3” value in data set [1] is on record as “bound equally well”. The “bone calcium mobilization activity” value in data set [3] is on record as “very little bone calcium mobilization activity”. In data set [4], the “differentiation of HL-60 cells” value was “almost as potent”. The “transcriptional activity in bone cells, compared to 1α,25(OH)2D3” value in data set [5] is recorded as “similar”.
Turning to `C=C1[C@H](O)CC(=C/C=C2\CCC[C@@H]3[C@@H](C(C)C)CC[C@@H]23)C[C@H]1O` [18,19-dinor-2MP, 2-methylene-18,19-dinor-1α-hydroxyhomopregnacalciferol], the “binding … compared to 1α,25(OH)2D3” value in data set [1] is reported as “bound equally well”. Besides, the “intestinal calcium transport activity” value in data set [2] is “very little activity”. For the same compound, the “bone calcium mobilization activity” value in data set [3] is recorded as “very little bone calcium mobilization activity”. Moreover, the “differentiation of HL-60 cells” value in data set [4] is on record as “almost as potent”. In data set [5], the “transcriptional activity in bone cells, compared to 1α,25(OH)2D3” value is listed as “about the same transcriptional activity”.
On to `C[C@H](/C=C/[C@H](C)C(C)(C)O)[C@H]1CC[C@H]2/C(=C/C=C3C[C@@H](O)C[C@H](O)C3)CCC[C@]12C` [19-nor-1α,25-dihydroxyvitamin D2, reference compound], for which, in data set [1], the “binding … compared to 1α,25(OH)2D3” value was “as well as the native hormone”. For the same compound, the “inhibition of differentiation of 3T3-L1 cells into mature adipocytes (Oil-Red-O staining)” value in the data set on 3T3-L1 cells is “equivalent in potency; also recorded: active”; with 3T3-L1 cells (listed as 19-nor-1α,25-dihydroxyvitamin D2) it was “more active”. In addition, the “bone calcium mobilization activity” value in data set [3] is “very low bone calcium mobilizing activity”.
In the case of `C=C1[C@H](O)C/C(=C/C=C2\CCC[C@]3(C)[C@@H]([C@@H](C)CC)CC[C@@H]23)C[C@@H]1O` [(1β,20S)2MbisP, (20S)-1β-hydroxy-2-methylene-19-nor-bishomo-pregnacalciferol, reference compound], the “inhibition of SCD-1 mRNA induction” value with SCD-1 mRNA (listed as 1-(20S)2-MbisP) is on record as “unable to inhibit”; in the data set on SCD-1 mRNA (listed as (1βOH, 20S)2M-BisP), “ineffective”. For the same compound, the “binding … compared to 1α,25(OH)2D3” value in data set [1] is “binds poorly, if at all”. Further, the “inhibition of differentiation of 3T3-L1 cells into mature adipocytes (Oil-Red-O staining)” value with 3T3-L1 cells (listed as 1-(20S)2-MbisP) is reported as “unable to inhibit”; in the data set on 3T3-L1 cells (listed as (1βOH, 20S)2M-BisP), “ineffective”.
As for `C=C1[C@H](O)CC(=C/C=C2\CCC[C@]3(C)[C@@H]([C@H](C)/C=C/[C@@H](C)C(C)(C)O)CC[C@@H]23)C[C@H]1O` [(24epi)D2], in data set [1] (higher affinity than native hormone), the “higher affinity binding to the vitamin D receptor than the native hormone” value is “approximately 0.5 log units”. Moreover, the “inhibition of differentiation of 3T3-L1 cells into mature adipocytes (Oil-Red-O staining)” value in the data set with 3T3-L1 cells was “improved; also recorded: active”. The “intestinal calcium transport activity” value in data set [2] is “less active”. In addition, the “bone calcium mobilization activity” value in data set [3] was “less active”.
Regarding `C=C1[C@H](O)CC(=C/C=C2\CCC[C@]3(C)[C@@H]([C@@H](C)CCCC(C)(C)C)CC[C@@H]23)C[C@H]1O` [TMM], the “inhibition of differentiation of 3T3-L1 cells into mature adipocytes (Oil-Red-O staining)” value with 3T3-L1 cells is reported as “inhibit; also recorded: effective”. Besides, the “intestinal calcium transport activity” value in data set [2] is “active”. The “bone calcium mobilization activity” value in data set [3] is reported as “active”.
